“Also recorded” adds a separate entry of the source.
How the values were obtained:
His-tagged METTL16 MTD = molecular target: T1, His-tagged METTL16 MTD (Homo sapiens, UniProt Q86W50); assay: switchSENSE biosensor assay; type: binding; settings: potassium salt of compound 45 was used
T1 construct: His-tagged METTL16 (1–291) was purified using the same protocol, without protease cleavage; made in house; host or cells: E. coli Rosetta (DE3)
T1 sequence (Q86W50 1-291): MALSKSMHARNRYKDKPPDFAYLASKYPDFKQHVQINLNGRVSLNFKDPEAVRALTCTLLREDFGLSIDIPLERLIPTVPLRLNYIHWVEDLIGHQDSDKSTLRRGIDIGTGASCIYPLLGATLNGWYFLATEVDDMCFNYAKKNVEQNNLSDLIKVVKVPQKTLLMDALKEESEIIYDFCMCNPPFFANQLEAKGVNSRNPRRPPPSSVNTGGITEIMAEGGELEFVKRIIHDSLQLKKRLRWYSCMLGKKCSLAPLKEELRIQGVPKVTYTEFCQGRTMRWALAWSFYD
Method: The biosensor assay was performed using a heliX instrument (Dynamic Biosensors) with a heliX adapter chip. The His-capture kit (HK-NTA-1) was used to functionalize and regenerate the chip. 100 nM His-tagged METTL16 MTD was captured to the surface and regenerated with imidazole solution (250 mM in 10 mM Tris, pH 7.4, 140 mM NaCl, 0.05% Tween 20, 50 μM EDTA, 50 μM EGTA) each time after measurement. PE140 buffer was used as the running buffer (10 mM Na2HPO4/NaH2PO4, pH 7.4, 140 mM NaCl, 0.05% Tween 20, 50 μM EDTA) and 0.2% DMSO was used as concertation 0. The association and dissociation flow rates were 200 μL/min, with an association time of 90 s and a dissociation time of 120 s. Data were analyzed using heliOS using the ‘kinetics mono- & biphasic-free amplitudes fitting’ mode.

[1] = molecular target: T2, methyltransferase activity of METTL16 MTD toward MAT2A-hp1 (Homo sapiens, UniProt Q86W50); assay: In vitro methylation assay (MTase Glo); type: biochemical; settings: for inhibition of the methyltransferase activity of METTL16 MTD, in words: RNA substrate MAT2A-hp1
T2 construct: METTL16 MTD (1–291) was subcloned to pOPINB plasmid; His tag followed by HRV 3C cleavage site (N, cleaved yes); made in house; host or cells: E. coli Rosetta (DE3)
T2 sequence (Q86W50 1-291): T1 sequence (Q86W50 1-291)
Method: Next, we evaluated the inhibition of the METTL16 methylation using the MTase Glo assay kit (Promega) measuring the methyltransferase activity based on the formation of the methylation product S-adenosyl homocysteine, which was converted to ADP by the MTase-Glo reagent to trigger a subsequent luciferase reaction (Figure 5E).
The methyltransferase activity of METTL16 MTD was measured using an MTase Glo kit (Promega V7601) following the manufacturer’s instructions. The reaction was carried out in white 384-well plates (Corning #3824), with a total methyltransferase reaction volume of 8 μL, and the final concentrations of METTL16 MTD, MAT2A-hp1, and SAM were 1, 1, and 10 μM, respectively, and 1% of DMSO was used as a control. […] To use SAM at a different final concentration, the concentration of SAM was adjusted accordingly in a 2× substrate solution.

[2] = molecular target: T3, METTL16 (1-291)–FAM-MAT2A-hp1 RNA (Homo sapiens, UniProt Q86W50); assay: FP assay after incubating SAM with METTL16; type: binding; settings: SAM incubated with METTL16 before the FP assay
T3 construct: METTL16 MTD (1–291) was subcloned to pOPINB plasmid; His tag followed by HRV 3C cleavage site (N, cleaved yes); made in house; host or cells: E. coli Rosetta (DE3)
T3 sequence (Q86W50 1-291): T1 sequence (Q86W50 1-291)

MDA-MB-231 cells = assay: Colony formation assay; type: cell-based, human; settings: 7 days, three tested concentrations
Method: MDA-MB-231 cells were collected and seeded with the density of 1000 cells per well into 24-well plates; after being cultured overnight, the medium was exchanged and treated with indicated compounds or DMSO (0.5%) as the control. The medium change and treatment were performed every 3 days. After 7 days, the cell culture medium was discarded, and cells were washed with PBS and fixed with 4% paraformaldehyde solution at room temperature for 15 min; the paraformaldehyde solution was removed, and cells were washed with PBS again to remove the paraformaldehyde. Then cells were stained with 0.1% (w/v) crystal violet. After staining for 15 min, the cells were washed with H2O to remove the extra dye and then photographed.

[3] = molecular target: T4, METTL16 MTD–U6 snRNA Δ interaction (Homo sapiens, UniProt Q86W50); assay: FP assay with Cy5-labeled U6 snRNA Δ; type: binding
T4 construct: METTL16 MTD (1–291) was subcloned to pOPINB plasmid; His tag followed by HRV 3C cleavage site (N, cleaved yes); made in house; host or cells: E. coli Rosetta (DE3)
T4 sequence (Q86W50 1-291): T1 sequence (Q86W50 1-291)

[4] = molecular target: T5, METTL16 MTD–GGACU-containing RNA interaction (Homo sapiens, UniProt Q86W50); assay: EMSA with GGACU-containing RNA; settings: 5 nM RNA, 600 nM METTL16 MTD
T5 sequence (Q86W50 1-291): T1 sequence (Q86W50 1-291)
Method: METTL16 MTD protein (1–291) was incubated with the indicated compound or DMSO in a buffer containing 20 mM HEPES, pH 7.5, 50 mM NaCl, 0.05% v/v Tween 20, and 0.05 mg/mL BGG at room temperature for 30 min; subsequently, FAM-MAT2A-hp1 RNA probe was added and incubated at room temperature for 10 min, the final of protein and RNA are 50 and 5 nM respectively, and 1% DMSO was used as the control. […] The gel was detected and imaged by Chemi Doc MP (Bio-Rad). […] EMSA for testing compounds with GGAUC-motif containing RNA and METTL16 MTD interaction was performed using the method described above, expecting that the final of METTL16 MTD protein and FAM-labeled-GGACU RNA are 600 nM and 5 nM respectively. EMSA for RNA binding: indicated concentrations of fluorophore-labeled RNA were incubated with indicated concentrations of protein in EMSA buffer for 15 min at room temperature, then loaded to native PAGE gels and imaged with the method described above.

[5] = molecular target: T6, METTL16–MAT2A-hp1 mRNA interaction (METTL16 MTD 1–291, FAM-labeled MAT2A-hp1 RNA) (Homo sapiens, UniProt Q86W50); assay: Fluorescence polarization (FP) assay, disruption of METTL16 binding to FAM-MAT2A-hp1 RNA
T6 sequence (Q86W50 1-291): T1 sequence (Q86W50 1-291)
Method: The binding of METTL16 to the FAM-labeled RNA probe formed a complex that led to a higher FP signal in comparison to that of the unbound RNA probe (Figure 2A). […] The Z-factor of 0.91 indicated the suitability of the assay condition (Figure S2D). […] In both FP assay and EMSA, a final concentration of 50 nM METTL16 and 5 nM FAM-MAT2A-hp was used. The METTL16 MTD (amino acids 1–291) was used in this study unless specifically indicated otherwise.
The FP assay was performed using 384-well black plates (Corning #4514) in a total reaction volume of 20 μL, with the final concentration of protein and RNA being 50 and 5 nM respectively. Compounds were diluted in FP buffer and incubated with protein for 30 min at room temperature, then FAM-MAT2A-hp1 RNA probe was added and the fluorescence polarization was measured using a TECAN Spark plate reader, under the excitation wavelength of 485 nm and the emission wavelength of 535 nm with bandwidth of 20 nm. 1% DMSO was used as the control. The inhibition was calculated with the equation: inhibition = 100%(Control – X)/(Control – Blank); Control: DMSO with protein and FAM-RNA; Blank: DMSO with FAM-RNA; X: compound with protein and FAM-RNA. The IC50 value was further determined using GraphPad Prism 9. […] The polarization was measured under an excitation wavelength of 630 nm and an emission wavelength of 680 nm with a bandwidth of 20 nm.

| SMILES | KA, biosensor assay (His-tagged METTL16 MTD) | Kd (His-tagged METTL16 MTD) | inhibition of the methyltransferase activity of METTL16 MTD, in words [1] | IC50 under different SAM concentrations (FP assay), in words [2] | inhibition on colony formation, in words (MDA-MB-231 cells) | IC50 [3] | inhibition of METTL16–GGACU RNA binding in EMSA, in words [4] | IC50 [5] | inhibition at 50 µM ([1]; at 50 μM, 1 μM METTL16 MTD, 1 μM MAT2A-hp1, 10 μM SAM) |
| --- | --- | --- | --- | --- | --- | --- | --- | --- | --- |
| CN1C(=O)C(=C2SC(NS(=O)(=O)c3ccc(C(=O)O)cc3)=NC2=O)c2cc(Br)ccc21 [Compound 45] | 7.43 ± 0.84E+5 M^-1 | 1.35 µM | dose-dependently inhibited | remained | did not show obvious inhibition on colony formation | 2.5 µM | dose-dependently inhibited | 1.7 µM |  |
| O=C1N=C(NS(=O)(=O)c2ccc(C(=O)O)cc2)SC1=C1C(=O)Nc2ccc(Br)cc21 [Compound 47] | 5.67 ± 0.48E+5 M^-1 | 1.76 µM | dose-dependently inhibited; also recorded: potent inhibitory activity | remained | mild inhibitory activity against colony formation | 6.4 µM | dose-dependently inhibited | 2.1 µM | > 50% |

Reference: paper PMC11040665, “Aminothiazolone Inhibitors Disrupt the Protein–RNA Interaction of METTL16 and Modulate the m^6A RNA Modification” (JACS Au, 2024)
